Data as given in ChEMBL document CHEMBL4043168, “The design and SAR of a novel series of 2-aminopyridine based LRRK2 inhibitors” (Bioorg Med Chem Lett, 2017).

Key:
[1] = Inhibition of GCK conserved Lys1 (DTVTSELAAVKIVK) in human PBMC at 1 uM
[2] = biological target: Phosphatidylinositol 5-phosphate 4-kinase type-2 gamma (Homo sapiens) (UniProt Q8TBX8); test: Inhibition of PIP4K2C ATP binding site (TLVIKEVSSEDIADMHSNLSNYHQYIVK) in human PBMC at 0.1 uM
[3] = biological target: Serine/threonine-protein kinase TBK1 (Homo sapiens) (UniProt Q9UHD2); test: Inhibition of TBK1 conserved Lys2 (DIKPGNIMR) in human PBMC at 0.1 uM
[4] = biological target: T1, Inhibitor of nuclear factor kappa-B kinase subunit epsilon (Homo sapiens) (UniProt Q14164); test: Inhibition of IKKe conserved Lys1 (SGELVAVKVFNTTSYLRPR) in human PBMC at 1 uM
T1 sequence (whole entry): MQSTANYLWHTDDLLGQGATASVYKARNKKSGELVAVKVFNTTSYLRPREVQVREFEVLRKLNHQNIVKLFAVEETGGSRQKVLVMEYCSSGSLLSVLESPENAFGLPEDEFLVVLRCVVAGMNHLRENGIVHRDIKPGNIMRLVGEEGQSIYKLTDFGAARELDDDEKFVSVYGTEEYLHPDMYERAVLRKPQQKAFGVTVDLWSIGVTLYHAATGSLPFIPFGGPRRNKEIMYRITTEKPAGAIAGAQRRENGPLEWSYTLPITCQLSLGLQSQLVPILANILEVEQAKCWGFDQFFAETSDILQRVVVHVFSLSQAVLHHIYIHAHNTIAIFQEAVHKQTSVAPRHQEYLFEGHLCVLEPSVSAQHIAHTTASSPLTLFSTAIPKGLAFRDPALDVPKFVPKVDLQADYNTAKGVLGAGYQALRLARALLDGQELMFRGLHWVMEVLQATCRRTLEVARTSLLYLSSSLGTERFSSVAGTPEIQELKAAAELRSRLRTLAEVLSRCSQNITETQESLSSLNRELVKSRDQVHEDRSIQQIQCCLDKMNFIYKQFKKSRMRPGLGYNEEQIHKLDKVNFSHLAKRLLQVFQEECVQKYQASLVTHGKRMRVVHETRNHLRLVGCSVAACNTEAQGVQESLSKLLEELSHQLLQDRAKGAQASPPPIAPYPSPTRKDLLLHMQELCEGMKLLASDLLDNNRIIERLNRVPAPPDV

[5] = biological target: Phosphatidylinositol 4-kinase beta (Homo sapiens) (UniProt Q9UBF8); test: Inhibition of PI4KB ATP binding site (VPHTQAVVLNSKDK) in human PBMC at 1 uM
MDR1 = test: Efflux ratio of apparent permeability from basolateral to apical over apical to basolateral side in MDCK cells harboring MDR1; format: ADME, cell-based, Canis lupus familiaris; conditions: dog
[6] = Intrinsic clearance in rat liver microsomes; format: ADME, microsome; conditions: read-out: CLH (converted)
[7] = biological target: Mitogen-activated protein kinase kinase kinase 2 (Homo sapiens) (UniProt Q9Y2U5); test: Inhibition of MAP3K2 conserved Lys2 (DIKGANILR) in human PBMC at 1 uM
[8] = biological target: Interferon-induced, double-stranded RNA-activated protein kinase (Homo sapiens) (UniProt P19525); test: Inhibition of PKR activation Loop (IGDFGLVTSLKNDGKR) in human PBMC at 1 uM
[9] = biological target: Serine/threonine-protein kinase B-raf (Homo sapiens) (UniProt P15056); test: Inhibition of BRAF labeling at conserved Lys2 (DLKSNNIFLHEDLTVK) in human PBMC at 0.1 uM
[10] = biological target: Tyrosine-protein kinase Fer (Homo sapiens) (UniProt P16591); test: Inhibition of FER conserved Lys2 (QEDGGVYSSSGLKQIPIK) in human PBMC at 0.1 uM
[11] = biological target: Serine/threonine-protein kinase Nek6 (Homo sapiens) (UniProt Q9HC98); test: Inhibition of NEK6 conserved Lys2 (DIKPANVFITATGVVK) in human PBMC at 0.1 uM
[12] = biological target: Proto-oncogene tyrosine-protein kinase Src (Homo sapiens) (UniProt P12931); test: Inhibition of SRC ATP binding site (QGAKFPIKWTAPEAALYGR) in human PBMC at 0.1 uM
[13] = biological target: RAC-beta serine/threonine-protein kinase (Homo sapiens) (UniProt P31751); test: Inhibition of AKT2 labeling at ATP binding site (GTFGKVILVR) in human PBMC at 0.1 uM
[14] = biological target: Mitogen-activated protein kinase kinase kinase 15 (Homo sapiens) (UniProt Q6ZN16); test: Inhibition of MAP3K15 conserved Lys1 (IAIKEIPER) in human PBMC at 0.1 uM
[15] = biological target: Tyrosine-protein kinase Yes (Homo sapiens) (UniProt P07947); test: Inhibition of YES activation Loop (QGAKFPIKWTAPEAALYGR) in human PBMC at 1 uM
Chain of Tyrosine-protein kinase Yes (Homo sapiens) (P07947 2-543 limits assumed): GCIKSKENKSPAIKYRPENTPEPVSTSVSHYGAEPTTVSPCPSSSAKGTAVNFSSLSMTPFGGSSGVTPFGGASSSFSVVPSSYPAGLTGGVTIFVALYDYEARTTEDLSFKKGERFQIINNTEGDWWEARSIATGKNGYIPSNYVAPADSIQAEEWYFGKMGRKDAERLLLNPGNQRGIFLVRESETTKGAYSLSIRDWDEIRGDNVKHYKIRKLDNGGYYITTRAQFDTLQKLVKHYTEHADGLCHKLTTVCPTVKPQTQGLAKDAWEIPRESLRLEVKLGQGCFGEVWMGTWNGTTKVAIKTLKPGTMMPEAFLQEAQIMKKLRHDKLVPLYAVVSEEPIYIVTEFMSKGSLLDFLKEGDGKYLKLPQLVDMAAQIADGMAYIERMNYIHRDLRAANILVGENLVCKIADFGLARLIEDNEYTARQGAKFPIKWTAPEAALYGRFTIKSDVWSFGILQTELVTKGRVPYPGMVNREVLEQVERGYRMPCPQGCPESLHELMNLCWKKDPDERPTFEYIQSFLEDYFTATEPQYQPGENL

Chain of Phosphatidylinositol 5-phosphate 4-kinase type-2 gamma (Homo sapiens) (Q8TBX8 whole entry): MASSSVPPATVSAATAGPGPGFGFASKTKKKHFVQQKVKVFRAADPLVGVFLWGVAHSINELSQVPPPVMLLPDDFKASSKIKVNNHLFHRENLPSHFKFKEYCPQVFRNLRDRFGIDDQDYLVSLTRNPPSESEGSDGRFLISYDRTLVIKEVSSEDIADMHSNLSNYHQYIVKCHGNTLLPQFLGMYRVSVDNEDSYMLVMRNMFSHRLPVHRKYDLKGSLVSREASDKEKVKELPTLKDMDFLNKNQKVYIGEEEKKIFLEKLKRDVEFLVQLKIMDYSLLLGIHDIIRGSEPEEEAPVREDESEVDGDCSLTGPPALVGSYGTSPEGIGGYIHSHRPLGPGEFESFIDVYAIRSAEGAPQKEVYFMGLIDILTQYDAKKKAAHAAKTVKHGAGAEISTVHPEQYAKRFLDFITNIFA
Chain of Proto-oncogene tyrosine-protein kinase Src (Homo sapiens) (P12931 2-536 limits assumed): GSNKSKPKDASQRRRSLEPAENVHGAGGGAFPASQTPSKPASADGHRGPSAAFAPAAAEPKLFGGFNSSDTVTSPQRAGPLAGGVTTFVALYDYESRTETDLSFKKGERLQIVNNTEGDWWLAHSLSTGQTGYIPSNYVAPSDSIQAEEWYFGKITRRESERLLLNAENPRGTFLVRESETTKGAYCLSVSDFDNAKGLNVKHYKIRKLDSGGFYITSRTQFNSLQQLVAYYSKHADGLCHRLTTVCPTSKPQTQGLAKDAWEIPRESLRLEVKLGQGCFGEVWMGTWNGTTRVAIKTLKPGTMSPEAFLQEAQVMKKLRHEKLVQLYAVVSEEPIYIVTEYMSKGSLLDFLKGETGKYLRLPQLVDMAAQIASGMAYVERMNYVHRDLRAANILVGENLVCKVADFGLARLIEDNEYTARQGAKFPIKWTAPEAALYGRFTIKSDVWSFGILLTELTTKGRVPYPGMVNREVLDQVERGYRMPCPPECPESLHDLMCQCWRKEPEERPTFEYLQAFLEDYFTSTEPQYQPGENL
Chain of Serine/threonine-protein kinase TBK1 (Homo sapiens) (Q9UHD2 whole entry): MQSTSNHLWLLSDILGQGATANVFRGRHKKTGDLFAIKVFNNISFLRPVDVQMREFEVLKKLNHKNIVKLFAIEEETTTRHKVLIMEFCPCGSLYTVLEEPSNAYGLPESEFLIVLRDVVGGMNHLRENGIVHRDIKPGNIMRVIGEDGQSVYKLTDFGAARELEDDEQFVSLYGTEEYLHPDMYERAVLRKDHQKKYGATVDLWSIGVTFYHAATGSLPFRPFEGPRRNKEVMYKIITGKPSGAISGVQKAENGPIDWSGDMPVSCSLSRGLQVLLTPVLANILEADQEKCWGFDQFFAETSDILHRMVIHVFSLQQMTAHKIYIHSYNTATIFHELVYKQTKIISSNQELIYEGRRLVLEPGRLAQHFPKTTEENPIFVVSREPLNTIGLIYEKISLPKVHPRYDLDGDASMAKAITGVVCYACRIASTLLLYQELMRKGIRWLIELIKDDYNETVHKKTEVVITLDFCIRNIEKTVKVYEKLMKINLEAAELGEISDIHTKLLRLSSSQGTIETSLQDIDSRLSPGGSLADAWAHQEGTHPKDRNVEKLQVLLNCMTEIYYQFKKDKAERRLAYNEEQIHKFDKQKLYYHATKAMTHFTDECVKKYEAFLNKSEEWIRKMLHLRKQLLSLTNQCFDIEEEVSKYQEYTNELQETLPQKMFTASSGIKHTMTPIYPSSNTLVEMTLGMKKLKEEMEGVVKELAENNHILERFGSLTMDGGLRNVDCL
Chain of Interferon-induced, double-stranded RNA-activated protein kinase (Homo sapiens) (P19525 whole entry): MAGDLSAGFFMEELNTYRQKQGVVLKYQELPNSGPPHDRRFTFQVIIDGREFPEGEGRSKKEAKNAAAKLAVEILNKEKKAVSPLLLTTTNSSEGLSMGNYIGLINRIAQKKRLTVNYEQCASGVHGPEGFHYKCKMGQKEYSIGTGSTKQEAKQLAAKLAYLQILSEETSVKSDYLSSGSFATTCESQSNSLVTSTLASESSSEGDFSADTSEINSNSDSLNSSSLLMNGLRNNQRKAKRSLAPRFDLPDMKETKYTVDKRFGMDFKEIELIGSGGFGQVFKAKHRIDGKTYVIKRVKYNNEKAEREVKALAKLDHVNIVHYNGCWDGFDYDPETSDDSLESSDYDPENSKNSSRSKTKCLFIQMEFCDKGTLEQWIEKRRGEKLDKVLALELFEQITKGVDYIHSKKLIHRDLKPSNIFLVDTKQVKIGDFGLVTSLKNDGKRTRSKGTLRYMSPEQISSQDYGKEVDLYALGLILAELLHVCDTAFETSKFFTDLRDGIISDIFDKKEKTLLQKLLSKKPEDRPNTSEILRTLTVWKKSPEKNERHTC
Chain of Serine/threonine-protein kinase B-raf (Homo sapiens) (P15056 whole entry): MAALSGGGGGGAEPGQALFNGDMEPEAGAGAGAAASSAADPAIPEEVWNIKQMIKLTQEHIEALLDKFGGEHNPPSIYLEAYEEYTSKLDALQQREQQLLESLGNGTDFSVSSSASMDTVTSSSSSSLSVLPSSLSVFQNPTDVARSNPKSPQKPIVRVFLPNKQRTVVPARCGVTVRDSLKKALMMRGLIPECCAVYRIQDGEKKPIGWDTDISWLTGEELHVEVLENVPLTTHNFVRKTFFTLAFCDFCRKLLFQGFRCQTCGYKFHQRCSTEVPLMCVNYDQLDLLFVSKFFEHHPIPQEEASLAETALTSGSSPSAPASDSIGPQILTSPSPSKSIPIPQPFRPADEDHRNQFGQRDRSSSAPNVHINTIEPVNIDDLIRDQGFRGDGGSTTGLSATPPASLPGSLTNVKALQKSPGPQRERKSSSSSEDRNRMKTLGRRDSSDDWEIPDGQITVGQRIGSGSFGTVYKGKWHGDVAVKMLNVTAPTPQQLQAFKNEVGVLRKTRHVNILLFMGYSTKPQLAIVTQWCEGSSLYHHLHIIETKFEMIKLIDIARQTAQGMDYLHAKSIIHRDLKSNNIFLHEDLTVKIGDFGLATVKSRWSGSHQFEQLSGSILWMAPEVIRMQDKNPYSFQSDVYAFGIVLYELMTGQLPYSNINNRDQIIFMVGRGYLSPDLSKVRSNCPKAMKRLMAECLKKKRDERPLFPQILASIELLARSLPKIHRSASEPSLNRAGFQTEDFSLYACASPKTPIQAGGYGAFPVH
Chain of Tyrosine-protein kinase Fer (Homo sapiens) (P16591 whole entry, looked up): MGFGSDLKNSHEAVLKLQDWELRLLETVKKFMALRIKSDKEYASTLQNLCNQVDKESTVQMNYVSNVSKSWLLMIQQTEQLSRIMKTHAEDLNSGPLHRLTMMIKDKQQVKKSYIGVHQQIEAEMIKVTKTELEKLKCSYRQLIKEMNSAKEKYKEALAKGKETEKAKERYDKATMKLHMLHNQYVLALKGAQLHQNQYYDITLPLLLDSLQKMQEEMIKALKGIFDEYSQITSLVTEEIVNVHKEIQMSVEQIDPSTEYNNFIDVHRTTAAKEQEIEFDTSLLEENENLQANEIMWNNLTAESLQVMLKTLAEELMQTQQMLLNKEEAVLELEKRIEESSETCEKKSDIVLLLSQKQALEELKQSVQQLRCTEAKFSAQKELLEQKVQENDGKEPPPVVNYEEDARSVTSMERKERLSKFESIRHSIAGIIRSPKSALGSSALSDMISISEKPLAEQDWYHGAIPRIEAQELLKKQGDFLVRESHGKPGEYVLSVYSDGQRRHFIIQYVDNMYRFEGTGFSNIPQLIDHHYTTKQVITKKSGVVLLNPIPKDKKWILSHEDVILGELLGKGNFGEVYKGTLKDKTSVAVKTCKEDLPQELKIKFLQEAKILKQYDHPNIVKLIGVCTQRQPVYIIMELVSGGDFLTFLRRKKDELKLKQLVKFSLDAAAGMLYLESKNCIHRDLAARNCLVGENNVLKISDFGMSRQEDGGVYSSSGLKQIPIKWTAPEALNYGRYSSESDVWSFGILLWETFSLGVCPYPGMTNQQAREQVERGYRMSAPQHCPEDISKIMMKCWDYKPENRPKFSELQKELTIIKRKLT
Chain of Serine/threonine-protein kinase Nek6 (Homo sapiens) (Q9HC98 whole entry): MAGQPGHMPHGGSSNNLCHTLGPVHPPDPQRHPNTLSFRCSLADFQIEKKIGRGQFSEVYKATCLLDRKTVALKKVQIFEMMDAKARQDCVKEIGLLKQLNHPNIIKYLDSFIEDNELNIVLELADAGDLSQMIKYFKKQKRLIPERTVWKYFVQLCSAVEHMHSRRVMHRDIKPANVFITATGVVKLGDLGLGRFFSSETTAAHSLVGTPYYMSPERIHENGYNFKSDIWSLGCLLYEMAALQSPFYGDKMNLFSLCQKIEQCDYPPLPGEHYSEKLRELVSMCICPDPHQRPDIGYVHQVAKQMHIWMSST

## CC(C)n1cc(-c2cc(-c3ccc(CN4CCOCC4)cc3)cnc2N)nn1
[1]
  inhibition: 0.5%
[2]
  inhibition: -8.1%
[3]
  inhibition: 21.7%
[4]
  inhibition: 5.5%
[5]
  inhibition: 2.2%
MDR1
  efflux ratio: 0.68
[6]
  CLint scaled: 9.4 L/h/kg
[7]
  inhibition: 29.2%
[8]
  inhibition: -3.7%
[9]
  inhibition: 12.5%
[10]
  inhibition: 8.5%
[11]
  inhibition: -4.8%
[12]
  inhibition: -4.4%
[13]
  inhibition: 17.1%
[14]
  inhibition: -0.5%
[15]
  inhibition: -2.3%
